From patent publication EP0252299A2, “Use of 12-amino-pyridazino[4',5':3,4]pyrrolo[2,1-a]isoquinolines in the preparation of cardioprotective and neuroprotective agents” (BOEHRINGER INGELHEIM KG, priority 1986, dated 1988)

How the values were obtained:
[1] = test system: myocardiale Radio-Calciumaufnahme; assay: Cardioprotective effect: inhibition of isoprenaline-induced myocardial radio-calcium uptake in conscious rats (method of Arndts); type: in vivo, Ratten; details: s.c. or p.o., dose that inhibits by 50 % the myocardial radio-calcium uptake caused by 30 mg/kg s.c. Isoprenalin
Text: Die cardioprotektive Wirkung wird auf folgende Weise bestimmt: Bekanntlich ist der mycardiale Ca⁺²-Gehalt ein Maß für die hypoxische bzw. die durch toxische Catecholamindosen hervorgerufene Herzschädigung (Higgins et al., Mol. Cell. Cardiol. 10: 427 - 438, 1984; Nakanishi et al., Am. J. Physiol. 242: 437 - 449, 1982; Fleckenstein, A., Vorträge der Erlanger Physiol. Tagung 1970, Ed. Keidel, Springer Verlag Berlin, Heidelberg, New York, 1971). Umgekehrt ist die Inhibition der hypoxischen oder Isoprenalin-bedingten myocardialen Calciumaufnahme ein Maß für die cardioprotektive Effektivität von Calciumantagonisten (Fleckenstein s.o.), von Calmodulininhibitoren (Higgins) und anderen Pharmaka, z.B. Betaadrenolytika (Arndts, Arzneimittelforschung 25: 1279 -1284, 1975).
Die cardioprotektive Wirkung wurde an wachen Ratten nach subcutaner oder peroraler Wirkstoffgabe anhand der von Arndts (s.o.) beschriebenen Methode festgestellt, und die Wirkungsstärke der Testsubstanzen als H₅₀-Wert angegeben; dieser Wert entspricht der Dosis, die die durch eine Gabe von 30 (mg/kg; s.c.) Isoprenalin bedingte, myocardiale Radio-Calciumaufnahme zu 50 % hemmt. Hier erwiesen sich die untersuchten neuen Verbindungen als ebenso wirksam wie Nifedipin.

Kaninchen-Aortenstreifen = assay: Calcium ion kinetics (45Ca2+ efflux) in rabbit aortic strips; details: for Potenzierung des stimulierten Ca²⁺-Efflux: stimulation with 80 mM K⁺
Text: Bestimmung der Calcium-Ionenkinetik an Kaninchen-Aortenstreifen
Methode nach C. van Breemen, P. Aaronson, R. Loutzenheiser und K. Meisheri CHEST 78: 157s - 165s (1980) und R. Casteels & G. Droogman J. Physiol 317: 263 - 279 (1981)
Methode: Mit ⁴⁵Ca²⁺ geladene Aortenstreifen werden sequentiell äquilibriert in physiologischer Lösung. Dabei tauscht das intrazelluläre Ca²⁺ mit dem extrazellulären Ca²⁺ aus, das heißt im extrazellulären Bad ist das radioaktive ⁴⁵Ca²⁺ meßbar. Auf eine Stimulation mit 80 mM K⁺ oder 10⁻⁵ Mol/l Noradrenalin (NA) hin wird der Austausch beschleunigt. Dabei ist die im Bad ansteigende Radioaktivität ein Maß für den Ca²⁺-Efflux. So wird das Ausmaß der durch die Stimulation freigesetzten Ca²⁺ als Effluxrate bestimmt.

Isoliertes Rattenherz = assay: Isolated Langendorff rat heart, low-flow oxygen deficiency and reperfusion: time to onset of regular contractions; design: species or system Ratten; details: concentration giving a significant reduction of the time to onset of regular contractions; infusion during O2 deficiency
Procedure: Die Untersuchungen am isolierten Langendorff-Herzen wurden nach O. Langendorff, Pflügers Arch. 61, 291 (1895) mit kleinen Abwandlungen ausgeführt:
Isoliertes Rattenherz, retrograde Perfusion über die Aorta. Elektrische Stimulation (300 Impulse/min. Impulsdauer Imsec.). Messung des linksventrikulär entwickelten Druckes mit flüssigkeitsgefülltem Latex-Ballon. Nach 20 min Aequilibrierung Auslösen eines Sauerstoff-Mangelzustandes mit 100-fach vermindertem Fluß durch Drosselung des Perfusionsflusses für 60 min, Rückkehr zu normalem Fluß bewirkt starken Anstieg der Grundspannung, unter Kontrollbedingungen setzt die Herztätigkeit nach 6 - 7 min unregelmäßig wieder ein, nach 15 -18 min rascher Übergang zu regelmäßigen Kontraktionen. Cardioprotektiv wirksame Verbindungen verkürzen die Zeit bis zum Einsetzen regelmäßiger Kontraktionen. Infusion der Testsubstanz (gelöst in unbegastem Perfusionsmedium) während des 0₂-Mangelzustandes herznah in das Perfusionssystem.
Die getesteten Verbindungen ergaben bei Anwendung in der unten angegebenen Konzentration eine signifikante Reduktion der Zeit bis zum Einsetzen regelmäßiger Kontraktionen.

Tieren = assay: Hypoxia tolerance test: survival of animals in a closed chamber; type: in vivo; details: gas mixture 96,5 % nitrogen and 3,5 % oxygen; doses up to 30 mg/kg
[2] = Microiontophoresis (standard method)
Text: Die Mikrointophorese wurde gemäß Standardmethode durchgeführt.

[3] = Scopolamine-induced impairment of short-term memory (scopolamine dementia); type: in vivo; details: Scopolamin 0,6 mg/kg i.p.
Text: In Vesuchen mit Einschränkung des Kurzzeitgedächtnisses bzw.

Compound | H50-Wert [1] | Hypoxie (Tieren) | Scopolamin-Demenz ([3]; doses up to 30 mg/kg) | other results
3,4-Dihydro-6,7-dimethoxy-12-(2-methoxyethyl)-amino-pyridazino [4ʹ,5ʹ : 3,4] pyrrolo [2,1-a] isochinolin | 1,92 |  |  | 
3,4-Dihydro-6,7-dimethoxy-12-(3-dimethylaminopropyl)-aminopyridazino [4ʹ,5ʹ : 3,4]pyrrolo[2,1-a]isochinolin | 0,46 | wirksam (wirksam: Im Dosenbereich bis einschließlich 30 mg/kg zeigen in der mit Substanz behandelten Tiergruppe signifikant mehr Tiere den gewünschten Effekt als in der Kontrollgruppe.) |  | Potenzierung des stimulierten Ca²⁺-Efflux (Kaninchen-Aortenstreifen): 11%; Hemmung des stimulierten Ca²⁺-Efflux (Kaninchen-Aortenstreifen; stimulation with 10⁻⁵ Mol/l Noradrenalin (NA)): 19%; Konzentration (Isoliertes Rattenherz): 13,3 µg/ml; Mikroiontophorese [2]: wirksam (wirksam: Im Dosenbereich bis einschließlich 30 mg/kg zeigen in der mit Substanz behandelten Tiergruppe signifikant mehr Tiere den gewünschten Effekt als in der Kontrollgruppe.)
3,4-Dihydro-6,7-dimethoxy-12-benzylamino-pyridazino[4ʹ,5ʹ : 3,4] pyrrolo[2,1-a]isochinolin [Verbindung H] |  |  | wirksam (wirksam: Im Dosenbereich bis einschließlich 30 mg/kg zeigen in der mit Substanz behandelten Tiergruppe signifikant mehr Tiere den gewünschten Effekt als in der Kontrollgruppe.) | 
3,4-Dihydro-6,7-dimethoxy-12-ethylamino-pyridazino-[4ʹ,5ʹ : 3,4] pyrrolo [2,1-a] isochinolin [B] |  | wirksam (wirksam: Im Dosenbereich bis einschließlich 30 mg/kg zeigen in der mit Substanz behandelten Tiergruppe signifikant mehr Tiere den gewünschten Effekt als in der Kontrollgruppe.) |  | Potenzierung des stimulierten Ca²⁺-Efflux (Kaninchen-Aortenstreifen): 27%
3,4-Dihydro-6,7-dimethoxy-12-isopropylamino-pyridazino-[4ʹ,5ʹ : 3,4] pyrrolo [2,1-a] isochinolin |  | wirksam (wirksam: Im Dosenbereich bis einschließlich 30 mg/kg zeigen in der mit Substanz behandelten Tiergruppe signifikant mehr Tiere den gewünschten Effekt als in der Kontrollgruppe.) |  | 
12-Allylamino-3,4-dihydro-6,7-dimethoxy-pyridazino-[4ʹ,5ʹ : 3,4] pyrrolo[2,1-a]isochinolin | 2,42 |  |  | 
COc1ccc([C@@H]2Sc3ccccc3N(CCN(C)C)C(=O)[C@@H]2OC(C)=O)cc1 [Diltiazem, reference compound] |  | unwirksam | unwirksam | 
COC(=O)C1=C(C)NC(C)=C(C(=O)OC)C1c1ccccc1[N+](=O)[O-] [Nifedipin] |  | unwirksam |  | Scopolamin-Demenz ([3]; dose 1 mg/kg): wirksam (wirksam: Im Dosenbereich bis einschließlich 30 mg/kg zeigen in der mit Substanz behandelten Tiergruppe signifikant mehr Tiere den gewünschten Effekt als in der Kontrollgruppe.); Scopolamin-Demenz ([3]; dose 3-30): unwirksam
COc1ccc(CCN(C)CCCC(C#N)(c2ccc(OC)c(OC)c2)C(C)C)cc1OC (stereo not drawn) [Verapamil] |  |  | unwirksam | 
